Tests used:
[1] = test system: Cord blood (CB) CD34+ cells; assay: TPO-mediated MK differentiation after VPA expansion of CB CD34+ cells; assay type: cell-based
Procedure: For this, 50,000 cryopreserved CB CD34+ cells were plated in serum-free (SF) media supplemented with stem cell factor (SCF), interleukin-3 (IL-3), Fms-like tyrosine kinase 3 (FLT-3), and TPO and allowed to expand with or without VPA (testing vs. control), as described in Example 1 above. After 7 days, instead of collecting, the cells were washed to remove VPA and cytokines, and re-plated in SF medium supplemented only with TPO. Approximately 50% more CD41+ MKs were detected in the VPA-expanded cultures than in cultures expanded with only cytokines (FIG. 3A). This corresponded to a final yield of ˜40 MKs generated from 1 CD34+ cell plated in the presence of VPA compared to […] CD41+ MKs generated by 1 CD34+ cell plated in the absence of VPA. q-PCR analyses confirmed upregulation of MK-specific genes (GATA1, PF4, and NFE2) in the cultures exposed to VPA before MK differentiation (FIG. 3B).

[2] = test system: Cord blood (CB) CD34+ cells; assay: Ex vivo expansion of CB CD34+ cells in serum-free culture with valproic acid; assay type: cell-based
Procedure: Cord blood (CB) CD34+ cells were obtained and separated into a testing group and a control group. The groups were subjected to the following cell culture protocol:
The CB CD34+ cells were primed with a cytokine cocktail and plated in serum-free (SF) culture. The cytokine cocktail included stem cell factor (SCF) at an amount of 150 ng/mL, interleukin-3 (IL-3) at an amount of 50 ng/mL, Fms-like tyrosine kinase 3 (FLT-3) at an amount of 100 ng/mL, and thrombopoietin (TPO) at an amount of 100 ng/mL.
1 mM valproic acid (VPA) was added to the SF culture (testing group only). No VPA was added to the control group.
The cells were allowed to expand in the SF culture and collected at Day 7. Total CD34+ cell expansion was around 200-fold.

## CCCC(CCC)C(=O)O [VPA, valproic acid]
[1]; 7 days expansion with VPA, then SF medium with TPO only
  more CD41+ MKs in VPA-expanded cultures than in cultures expanded with only cytokines: Approximately 50%
[1]; cultures exposed to VPA before MK differentiation
  q-PCR expression of MK-specific genes (GATA1, PF4, and NFE2): upregulation
[1]; plated in the presence of VPA
  final yield of MKs generated from 1 CD34+ cell plated: 40 MKs generated from 1 CD34+ cell
[2]; 1 mM VPA added day 1, SF culture with SCF, IL-3, FLT-3, TPO
  number of CD34+ cells in VPA-treated cultures relative to cells expanded in the absence of VPA: > 200 fold
[2]; 1 mM VPA, SF culture, collected at Day 7
  Total CD34+ cell expansion: around 200 fold
[2]; VPA-treated SF culture
  CD41+ MK cells in expanded HSCs: 8.9±2%
  glycophorin (GPA)+ erythroid cells in expanded HSCs: 17±5.4%
  primitive CD34+/CD90+ cells in expanded HSCs: 74.2±9.8%
